Columns and labels:
TAAR1 receptor = target: T1, TAAR1 receptor (Homo sapiens, UniProt Q96RJ0); experiment: Effect on cAMP content in cells which stably express TAAR1 receptor; format: cell-based
T1 construct: expressed in transfected cells
T1 sequence (Q96RJ0 1-339): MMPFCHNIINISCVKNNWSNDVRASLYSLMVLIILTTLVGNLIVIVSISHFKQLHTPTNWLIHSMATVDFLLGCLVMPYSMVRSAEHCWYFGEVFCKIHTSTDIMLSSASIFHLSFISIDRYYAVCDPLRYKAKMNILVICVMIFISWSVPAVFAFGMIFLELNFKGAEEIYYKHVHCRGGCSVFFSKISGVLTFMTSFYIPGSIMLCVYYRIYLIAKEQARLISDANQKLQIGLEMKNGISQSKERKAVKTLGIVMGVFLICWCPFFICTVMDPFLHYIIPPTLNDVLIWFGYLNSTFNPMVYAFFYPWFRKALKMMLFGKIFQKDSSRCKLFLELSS
Experimental: Test Example1. Determination of the effect of the present compound on cAMP content in cells which stably express TAAR1 receptor
Determination of the activation effect of compounds on TAAR1 receptors.
• 1) Preparation of experimental buffer: 1*HBSS+20 mM HEPES+0.1% BSA+500 μM IBMX. • 2) Complete medium: • Ham's F12K+10% Fetal Bovine Serum+1*Penicillin-Streptomycin+200 μg/mL Hygromycin B for CHO • DMEM+10% Fetal Bovine Serum+1*Penicillin-Streptomycin+200 μg/mL Hygromycin B for HEK293 • 3) TAAR1 cell line was cultured in complete medium at 37° C. and 5% CO2; After TrypLE digestion, the cells were resuspended in the experimental buffer and seeded into a 384 cell culture plate with a density of 8000 cells/15 ul/well. • 4) The compound was diluted with experimental buffer and added 5 μL to each well to culture at 37° C. for 30 minutes. • 5) cAMP-d2 and Anti cAMP Eu3+ were freeze thaw, and diluted 20 times with lysis buffer; 10 μL cAMP-d2 was added to the experimental well, and then 10 μL Anti cAMP Eu3+ was added into the experimental well; the reaction plate was centrifuged at 200 g for 30 seconds at room temperature, and stand at 25° C. for 1 hour; data was collected by Envision.
[formula] • 5) EC50 of compounds was calculated using GraphPad nonlinear fitting formula:
[formula] • X: Log value of the compound concentration; Y: Activation %

[1] = Pharmacokinetic assay of Balb/c mice, plasma and brain, oral; format: in vivo; details: male, mouse, p.o. 5 mg/kg
Experimental: Test Example 3. Pharmacokinetic Assay of Balb/c Mice
Balb/c Mice were used as test animals. The pharmacokinetic behavior of the compounds of the present invention was studied in the plasma and brain of mice administered orally at the dose of 5 mg/kg.
Balb/c Mice, male, Shanghai Jiesijie Experimental Animal Co., Ltd., animal production license number (SCXK (Shanghai) 2013-0006 N0.311620400001794).
After fasting overnight, 24 male Balb/c mice were administered p.o. at a dose of 5 mg/kg and an administration volume of 10 mL/kg, respectively.
Drug formulation for oral administration: 0.5% CMC-Na (1% Tween 80).
After CO2 euthanasia of experimental animals, heart blood and brain tissue were collected at 0.25 h, 0.5 h, 1 h, 2 h, 4 h, 6 h, 8 h, and 24 h after administration. The blood was placed in EDTA-2K tubes and centrifuged at 4° C. and 6000 rpm for 6 minutes to separate plasma. The brain tissue was washed with pre-cooled PBS, dried, weighed, and stored at −80° C. The animals were feed 4 hours after administration.
1) 160 μL of acetonitrile was added to 40 μL of the plasma sample for precipitation, and then the mixture was centrifuged at 3500×g for 5-20 min.
2) 100 μL of the supernatant was taken to analyze the concentration of the test compound by LC/MS/MS.
• Liquid chromatography condition: Shimadzu LC-20AD pump • Mass spectrometry condition: AB Sciex API 4000 mass spectrometer • Chromatographic column: phenomenex Gemiu 5 μm C18 50×4.6 mm • Mobile phase: Eluent A was 0.10% formic acid in water, and Eluent B was acetonitrile • Flow rate: […] • Elution time: 0-4.0 minutes, the eluent is as follows:
The main pharmacokinetic parameters were calculated using WinNonlin8.1, and the results of the pharmacokinetic experiments in mouse are shown in the table below.

[2] = tested on: C57BL/6 mice, high spontaneous activity induced by phencyclidine (PCP); experiment: High spontaneous activity model of mice induced by phencyclidine (PCP); format: in vivo; details: 60 minutes after modeling
Excerpt: Test Example 2. Pharmacodynamic Evaluation of the Present Compounds in Mice Model of High Spontaneous Activity Induced by Phencyclidine (PCP)
The purpose of the experiment is to evaluate the efficacy of compounds in a high spontaneous activity model of C57BL/6 mice induced by phencyclidine (PCP) using the spontaneous activity method.
C57BL/6 mice, provided by Shanghai Lingchang Biotechnology Co., Ltd., male, 6-8 weeks, 20-24 g, 36 mice.
The day before the experimental test, the animals were placed in the laboratory and acclimated for 8 hours.
On the day of adaptation, the animals were randomly grouped according to their weight.
The animals were weithed and treated with solvent control (20% HP-3-CD), compounds of the present invention (oral administration) respectively. 30 minutes later, modeling (intraperitoneal administration) was performed, and the animals were given physiological saline or phencyclidine, with dosage volume of 10 mL/kg.
After the administration, the animals were placed in observation box and the spontaneous activity was detected for 30 minutes. The moving distance (meters) of the animals in the observation box was counted every 5 minutes.
After 30 minutes, the animals were taken out for modeling and then placed in the observation box to test their spontaneous activity for 60 minutes. The moving distance (meters) of the animals in the observation box was counted every 5 minutes.
Excel software was used to collect data. A Two-Way ANOVA or One-Way ANOVA was conducted used Prism (Graph pad software, Inc.) software. p<0.05 was considered significant difference.

SMILES	EC50 (TAAR1 receptor)	AUC(0-t) ([1]; Brain)	Cmax ([1]; Brain)	Tmax ([1]; Brain)	half-life ([1]; Brain)	AUC(0-t) ([1]; Plasma)	Cmax ([1]; Plasma)	Tmax ([1]; Plasma)	half-life ([1]; Plasma)	Total distance (m, Mean ± SEM) 60 minutes ([2]; compound 3 mg/kg oral + PCP 5 mg/kg i.p.)	Total distance (m, Mean ± SEM) 60 minutes ([2]; compound 6 mg/kg oral + PCP 5 mg/kg i.p.)
[2H]c1ccc([C@H]2CNCCO2)nc1 (single isomer, unassigned) [Example 6-2, 2-(pyridin-2-yl-5-d)morpholine]	3.4 nM	6480 ng·h/mL	3030 ng/mL	15 min	48 min	4300 ng·h/mL	2050 ng/mL	15 min	48 min	–	–
[2H]c1ccnc([C@@H]2CNCCO2)c1 (single isomer, unassigned) [Example 7-2, 2-(pyridin-2-yl-4-d)morpholine]	5.9 nM	4410 ng·h/mL	2500 ng/mL	30 min	54 min	2840 ng·h/mL	1560 ng/mL	30 min	48 min	–	–
[2H]C1([2H])COC(c2cc(C)ccn2)CN1 (single isomer, unassigned) [Example 16-1, 2-(4-Methylpyridin-2-yl)morpholin-5,5-d2]	21.3 nM	5630 ng·h/mL	1740 ng/mL	15 min	174 min	2270 ng·h/mL	890 ng/mL	15 min	114 min	–	–
Cc1nc([C@@H]2CNCCO2)ccc1F (single isomer, unassigned) [Example 19-2, 2-(5-fluoro-6-methyl-2-pyridyl)morpholine]	13.6 nM	8640 ng·h/mL	2510 ng/mL	120 min	66 min	2760 ng·h/mL	705 ng/mL	120 min	222 min	–	–
Clc1ccc(C2CNCCO2)nc1 (single isomer, unassigned) [Example 25-2]	207 nM	–	–	–	–	–	–	–	–	–	–
[2H]c1ccc(C2CNCCO2)cc1 (single isomer, unassigned) [Example 28-2, 2-(phenyl-4-d)morpholine]	3 nM	3980 ng·h/mL	2110 ng/mL	15 min	78 min	2820 ng·h/mL	1340 ng/mL	15 min	84 min	113.09 ± 12.69 m	–
Clc1cccc(C2CNCCO2)c1 (single isomer, unassigned) [Example 46-1, 2-(3-Chlorophenyl)morpholine]	17.7 nM	–	–	–	–	–	–	–	–	–	–
c1ccc(C2CNCCO2)nc1 (stereo not shown) [Compound A, 2-(Pyridin-2-yl)morpholine]	7.1 nM	–	–	–	–	–	–	–	–	–	113.09 ± 12.69 m
Cc1cccc([C@@H]2CNCCO2)c1 [Example 47-2]	11.5 nM	–	–	–	–	–	–	–	–	–	–
Fc1cccc([C@@H]2CNCCO2)c1 [Example 48-1]	2.1 nM	–	–	–	–	–	–	–	–	–	–

From US20250051316A1, “2-(ARYL-2-YL) […] […], PREPARATION METHOD THEREFOR AND APPLICATION THEREOF” (SHANGHAI HANSOH BIOMEDICAL CO., LTD., priority 2021, published 2025)
